Where a name gives a salt, the structure may show the parent alone.
Legend:
Assay type in all cases: in vivo
[1] = growth promotion in slaughter chickens (Example II); details: control = 100
From the text: Slaughter chickens are given mocimycin in the form of the sodium salt obtained in Example 1, in a mixture with component of the feed (wheat flour), the amount of antibiotic in the feed (based on the weight of the feed) being as specified in the following Table, which gives the weight of the chickens after 3, 5 and 7 weeks.

[2] = growth promotion in pigs (Example III); details: control = 100
Protocol: The sodium salt of mocimycin as obtained in Example I, was pre-mixed with wheat flour which mixture, added to the feed, was administered to pigs. The amount of the antibiotic present in the feed (based on the weight of the feed) is given hereinbelow in Table VII, in which the average relative weights of the pigs after 6 and 12 weeks, respectively are given.

[3] = test system: microorganism causing Treponema dysentery; assay: pigs infected with Treponema dysentery (Example VI)
From the text: Twenty pigs, 3 months old, were infected with the microorganism causing Treponema dysentery by administering to them feed mixed with a homogenous mixture of contents of the intestines and intestinal mucous membranes of two animals suffereing from the disease. The infected pigs were divided into four groups of five animals each and the animals were fed with the feed as a slurry diluted 1:1 with water for 1 week. The total amount of feed per animal was 1.2 kg each day and was given in two portions.
After 5 days, the first symptoms of the disease were observed from the thin faeces and confirmed by a microbiological investigation of the faeces and […] a week, the animals were treated as follows:
group 2: 100 ppm of tylosin were added to the feed;
group 3: 25ppm of dihydromocimycin were added to the feed; and
group 4: 50 ppm of dihydromocimycin were added to the feed.
The antibiotic-enriched feed was administered for a week. After that week, feed without any antibiotic was given again. Recovery from the infection was observed from the weights of the animals and from inspection samples of the faeces, macroscopically from their consistencies, and microscopically by means of a specific immuno-fluoroescence technique. During the test, one animal of each of groups 1, 3 and 4 died.
The results are shown in the following Table wherein the weights indicated are the averages at that time of the still living animals. The consistency of the faeces is indicated as follows:
+ means thin liquid; ± means thick liquid; - means normal. The results of the immuno-fluorescence technique are indicated quantitatively by indicating the number of Treponemas in the visual field: 5 means very crowded; 4 means many; 3 means about 10 Treponemas; 2 means 1 or 2 Treponemas, 1 means more visual fields necessary to find one Treponema, and - means negative.

## CC=CC=CC1OC(O)(C(CC)C(=O)NCC=CC=C(C)C(OC)C(C)C2OC(C=CC=CC=C(C)C(=O)c3c(O)cc[nH]c3=O)C(O)C2O)C(O)C(O)C1(C)C (stereo not drawn) [sodium salt of mocimycin]
[1]; 5 ppm in feed, 3 weeks
  weight of chickens relative to control (control = 100): 104%
[1]; 5 ppm in feed, 5 weeks
  weight of chickens relative to control (control = 100): 103%
[1]; 5 ppm in feed, 7 weeks
  weight of chickens relative to control (control = 100): 103%
[1]; 10 ppm in feed, 3 weeks
  weight of chickens relative to control (control = 100): 107%
[1]; 10 ppm in feed, 5 weeks
  weight of chickens relative to control (control = 100): 105%
[1]; 10 ppm in feed, 7 weeks
  weight of chickens relative to control (control = 100): 104%
[1]; 20 ppm in feed, 3 weeks
  weight of chickens relative to control (control = 100): 109%
[1]; 20 ppm in feed, 5 weeks
  weight of chickens relative to control (control = 100): 107%
[1]; 20 ppm in feed, 7 weeks
  weight of chickens relative to control (control = 100): 105%
[2]; 5 ppm in feed, 6 weeks
  feed conversion: 95
  growth (average relative weight): 107
[2]; 5 ppm in feed, 12 weeks
  feed conversion: 98
  growth (average relative weight): 104.5
[2]; 10 ppm in feed, 6 weeks
  feed conversion: 92.5
  growth (average relative weight): 108.5
[2]; 10 ppm in feed, 12 weeks
  feed conversion: 99
  growth (average relative weight): 104

## CC[C@H]1OC(=O)C[C@@H](O)[C@H](C)[C@@H](O[C@@H]2O[C@H](C)[C@@H](O[C@H]3C[C@@](C)(O)[C@@H](O)[C@H](C)O3)[C@H](N(C)C)[C@H]2O)[C@@H](CC=O)C[C@@H](C)C(=O)/C=C/C(C)=C/[C@@H]1CO[C@@H]1O[C@H](C)[C@@H](O)[C@@H](OC)[C@H]1OC [tylosin, reference compound]
[3]; tylosin 100 ppm group, after 1 week (start of antibiotics)
  Weights: 22.2 kg
[3]; tylosin 100 ppm group, just before infection (baseline)
  Weights: 24.4 kg
[3]; tylosin 100 ppm, after 2 weeks
  Weights: 21.4 kg
[3]; tylosin 100 ppm, after 3 weeks
  Weights: 23.2 kg

Source: US4062948A, “Dihydromocimycin antibiotics” (Gist-Brocades N.V., priority 1970, dated 1977)
